Reference: ChEMBL document CHEMBL3991601, “The target landscape of clinical kinase drugs” (Science, 2017)
Calls of active or inactive are those of the source. For most assays here, no stated cut-off is given here; in the data, actives have a measured Kd and inactives only a lower limit.

Experiments:
[1] = target: Mitogen-activated protein kinase 1 (Homo sapiens, UniProt P28482)
[2] = target: Tyrosine-protein kinase Lyn (Homo sapiens, UniProt P07948)
[3] = target: 5'-AMP-activated protein kinase catalytic subunit alpha-1 (Homo sapiens, UniProt Q13131)
[4] = target: Mitogen-activated protein kinase kinase kinase 1 (Homo sapiens, UniProt Q13233)
[5] = target: Mitogen-activated protein kinase kinase kinase kinase 4 (Homo sapiens, UniProt O95819)
[6] = target: T1, Exosome RNA helicase MTR4 (Homo sapiens, UniProt P42285)
T1 sequence (P42285 whole entry): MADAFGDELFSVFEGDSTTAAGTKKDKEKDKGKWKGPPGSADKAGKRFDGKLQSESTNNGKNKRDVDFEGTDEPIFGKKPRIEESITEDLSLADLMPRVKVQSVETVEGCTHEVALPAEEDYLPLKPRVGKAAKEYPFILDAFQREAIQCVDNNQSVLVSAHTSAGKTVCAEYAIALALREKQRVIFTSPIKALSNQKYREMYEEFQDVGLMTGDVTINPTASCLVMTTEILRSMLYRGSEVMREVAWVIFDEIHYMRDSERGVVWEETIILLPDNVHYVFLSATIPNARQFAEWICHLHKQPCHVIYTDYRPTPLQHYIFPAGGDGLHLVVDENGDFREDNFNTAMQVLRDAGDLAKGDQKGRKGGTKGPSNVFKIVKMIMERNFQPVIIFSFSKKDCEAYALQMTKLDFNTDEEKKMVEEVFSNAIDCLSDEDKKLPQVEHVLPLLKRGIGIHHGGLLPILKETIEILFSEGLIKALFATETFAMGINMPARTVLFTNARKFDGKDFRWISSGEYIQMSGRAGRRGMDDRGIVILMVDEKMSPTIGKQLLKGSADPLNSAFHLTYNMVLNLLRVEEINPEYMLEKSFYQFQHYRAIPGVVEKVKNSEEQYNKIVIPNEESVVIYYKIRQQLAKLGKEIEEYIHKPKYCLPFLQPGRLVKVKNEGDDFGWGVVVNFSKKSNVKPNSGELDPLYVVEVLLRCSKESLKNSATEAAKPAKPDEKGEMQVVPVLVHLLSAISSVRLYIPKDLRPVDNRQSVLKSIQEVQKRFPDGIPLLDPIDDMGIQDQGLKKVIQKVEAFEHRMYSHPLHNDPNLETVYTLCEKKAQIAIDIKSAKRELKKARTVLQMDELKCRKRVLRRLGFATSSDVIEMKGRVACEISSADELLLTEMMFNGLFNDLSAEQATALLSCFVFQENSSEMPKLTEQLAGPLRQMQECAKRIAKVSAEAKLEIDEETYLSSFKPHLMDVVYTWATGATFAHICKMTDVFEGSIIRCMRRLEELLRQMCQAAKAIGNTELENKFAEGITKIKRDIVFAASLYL

[7] = target: Dual specificity protein kinase CLK1 (Homo sapiens, UniProt P49759)
[8] = target: T2, RNA cytidine acetyltransferase (Homo sapiens, UniProt Q9H0A0)
T2 sequence (Q9H0A0 whole entry): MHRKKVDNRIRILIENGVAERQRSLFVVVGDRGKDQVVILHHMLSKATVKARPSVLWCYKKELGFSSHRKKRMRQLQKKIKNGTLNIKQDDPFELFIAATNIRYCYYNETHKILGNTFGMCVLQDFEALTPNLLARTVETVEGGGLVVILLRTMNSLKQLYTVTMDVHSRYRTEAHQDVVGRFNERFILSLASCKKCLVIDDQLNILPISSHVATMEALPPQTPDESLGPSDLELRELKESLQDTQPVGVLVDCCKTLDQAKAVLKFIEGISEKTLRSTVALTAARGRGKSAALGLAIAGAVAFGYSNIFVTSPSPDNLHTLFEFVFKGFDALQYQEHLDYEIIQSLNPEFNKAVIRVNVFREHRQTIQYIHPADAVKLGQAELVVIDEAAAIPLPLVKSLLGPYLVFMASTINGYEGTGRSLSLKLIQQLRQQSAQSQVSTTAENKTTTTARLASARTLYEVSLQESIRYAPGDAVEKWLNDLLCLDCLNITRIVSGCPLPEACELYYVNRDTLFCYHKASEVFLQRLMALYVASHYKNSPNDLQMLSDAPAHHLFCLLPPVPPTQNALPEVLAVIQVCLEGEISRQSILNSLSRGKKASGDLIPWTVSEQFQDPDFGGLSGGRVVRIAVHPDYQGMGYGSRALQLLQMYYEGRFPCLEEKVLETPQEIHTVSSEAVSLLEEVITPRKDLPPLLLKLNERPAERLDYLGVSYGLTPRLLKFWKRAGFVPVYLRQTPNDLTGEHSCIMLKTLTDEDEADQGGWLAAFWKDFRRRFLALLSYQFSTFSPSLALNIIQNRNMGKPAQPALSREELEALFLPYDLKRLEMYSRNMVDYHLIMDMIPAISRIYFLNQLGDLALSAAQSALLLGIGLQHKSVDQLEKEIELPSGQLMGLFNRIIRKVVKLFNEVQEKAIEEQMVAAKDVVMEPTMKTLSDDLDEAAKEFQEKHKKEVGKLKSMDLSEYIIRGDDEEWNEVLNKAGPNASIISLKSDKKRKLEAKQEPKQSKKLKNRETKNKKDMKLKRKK

Sequence of Tyrosine-protein kinase Lyn (P07948 whole entry): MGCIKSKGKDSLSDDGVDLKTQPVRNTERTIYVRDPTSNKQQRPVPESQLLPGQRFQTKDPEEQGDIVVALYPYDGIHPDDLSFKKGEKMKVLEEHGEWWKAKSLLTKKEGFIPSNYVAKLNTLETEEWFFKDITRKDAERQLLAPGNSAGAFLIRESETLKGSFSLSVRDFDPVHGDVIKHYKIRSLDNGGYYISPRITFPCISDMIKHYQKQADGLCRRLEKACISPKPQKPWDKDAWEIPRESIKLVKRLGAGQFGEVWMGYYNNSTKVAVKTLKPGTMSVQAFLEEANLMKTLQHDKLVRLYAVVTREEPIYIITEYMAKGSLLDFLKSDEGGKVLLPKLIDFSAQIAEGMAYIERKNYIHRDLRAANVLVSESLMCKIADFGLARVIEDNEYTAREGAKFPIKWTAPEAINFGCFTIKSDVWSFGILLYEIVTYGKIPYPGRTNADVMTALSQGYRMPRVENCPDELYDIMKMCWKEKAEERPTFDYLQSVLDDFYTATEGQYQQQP
Sequence of Dual specificity protein kinase CLK1 (P49759 whole entry): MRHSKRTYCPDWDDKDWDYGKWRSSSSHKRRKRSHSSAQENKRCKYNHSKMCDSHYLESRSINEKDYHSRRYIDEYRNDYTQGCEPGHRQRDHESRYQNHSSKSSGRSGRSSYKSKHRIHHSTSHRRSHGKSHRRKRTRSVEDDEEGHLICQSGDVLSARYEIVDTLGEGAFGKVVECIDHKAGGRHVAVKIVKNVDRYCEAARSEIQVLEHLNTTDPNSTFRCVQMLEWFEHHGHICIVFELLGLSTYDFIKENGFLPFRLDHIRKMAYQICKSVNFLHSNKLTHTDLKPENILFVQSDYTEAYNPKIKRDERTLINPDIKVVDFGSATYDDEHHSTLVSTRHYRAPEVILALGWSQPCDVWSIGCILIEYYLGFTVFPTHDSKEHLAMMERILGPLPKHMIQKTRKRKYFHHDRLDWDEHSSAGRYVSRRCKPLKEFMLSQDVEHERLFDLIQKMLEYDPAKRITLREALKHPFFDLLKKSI
Sequence of Mitogen-activated protein kinase kinase kinase 1 (Q13233 whole entry): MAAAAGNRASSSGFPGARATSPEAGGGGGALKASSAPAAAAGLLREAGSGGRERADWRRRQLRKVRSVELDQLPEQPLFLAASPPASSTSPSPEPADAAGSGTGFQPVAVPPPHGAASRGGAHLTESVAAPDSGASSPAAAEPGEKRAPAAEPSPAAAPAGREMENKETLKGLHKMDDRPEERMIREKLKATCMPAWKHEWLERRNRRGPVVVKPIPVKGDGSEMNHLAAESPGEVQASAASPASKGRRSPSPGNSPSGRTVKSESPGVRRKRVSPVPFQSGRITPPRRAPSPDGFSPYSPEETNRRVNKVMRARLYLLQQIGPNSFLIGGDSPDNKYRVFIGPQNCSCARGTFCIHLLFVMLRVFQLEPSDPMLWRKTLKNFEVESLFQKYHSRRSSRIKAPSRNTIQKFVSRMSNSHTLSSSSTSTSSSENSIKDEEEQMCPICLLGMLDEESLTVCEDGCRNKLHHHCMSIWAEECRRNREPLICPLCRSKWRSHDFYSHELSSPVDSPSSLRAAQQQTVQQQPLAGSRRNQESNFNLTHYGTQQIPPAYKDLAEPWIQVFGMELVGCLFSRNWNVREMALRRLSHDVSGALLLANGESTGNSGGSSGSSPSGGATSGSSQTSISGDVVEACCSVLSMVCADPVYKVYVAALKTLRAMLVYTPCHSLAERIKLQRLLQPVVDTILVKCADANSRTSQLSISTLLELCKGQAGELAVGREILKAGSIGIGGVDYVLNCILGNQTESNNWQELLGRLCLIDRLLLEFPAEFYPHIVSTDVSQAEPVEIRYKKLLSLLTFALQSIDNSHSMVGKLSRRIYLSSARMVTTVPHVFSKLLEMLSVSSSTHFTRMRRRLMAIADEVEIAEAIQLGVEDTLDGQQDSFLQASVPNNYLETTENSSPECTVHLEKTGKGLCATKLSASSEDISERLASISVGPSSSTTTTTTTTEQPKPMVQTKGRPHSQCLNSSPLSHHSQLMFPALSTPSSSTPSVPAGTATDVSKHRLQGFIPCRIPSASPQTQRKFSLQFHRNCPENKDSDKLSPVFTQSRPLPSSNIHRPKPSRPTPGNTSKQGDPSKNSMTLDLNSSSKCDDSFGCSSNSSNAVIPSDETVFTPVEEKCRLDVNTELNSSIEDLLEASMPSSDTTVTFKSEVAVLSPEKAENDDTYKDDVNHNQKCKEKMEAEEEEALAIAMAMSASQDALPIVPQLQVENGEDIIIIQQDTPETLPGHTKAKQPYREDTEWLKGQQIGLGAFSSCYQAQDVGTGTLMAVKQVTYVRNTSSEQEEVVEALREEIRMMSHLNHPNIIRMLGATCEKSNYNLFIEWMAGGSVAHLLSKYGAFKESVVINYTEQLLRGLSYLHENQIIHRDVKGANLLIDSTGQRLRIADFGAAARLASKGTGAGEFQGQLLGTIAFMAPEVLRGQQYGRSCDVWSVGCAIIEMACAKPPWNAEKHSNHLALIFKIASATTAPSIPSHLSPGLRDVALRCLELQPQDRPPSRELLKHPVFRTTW
Sequence of Mitogen-activated protein kinase 1 (P28482 whole entry): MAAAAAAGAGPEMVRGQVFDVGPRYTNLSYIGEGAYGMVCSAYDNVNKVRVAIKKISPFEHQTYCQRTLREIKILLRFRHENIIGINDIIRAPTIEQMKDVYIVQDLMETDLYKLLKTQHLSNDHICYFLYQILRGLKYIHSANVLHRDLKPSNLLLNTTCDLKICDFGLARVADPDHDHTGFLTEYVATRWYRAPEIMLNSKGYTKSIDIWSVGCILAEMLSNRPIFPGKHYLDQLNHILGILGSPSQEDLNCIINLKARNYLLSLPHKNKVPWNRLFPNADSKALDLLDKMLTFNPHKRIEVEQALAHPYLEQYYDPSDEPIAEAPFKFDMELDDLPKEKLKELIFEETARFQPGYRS
Sequence of Mitogen-activated protein kinase kinase kinase kinase 4 (O95819 whole entry): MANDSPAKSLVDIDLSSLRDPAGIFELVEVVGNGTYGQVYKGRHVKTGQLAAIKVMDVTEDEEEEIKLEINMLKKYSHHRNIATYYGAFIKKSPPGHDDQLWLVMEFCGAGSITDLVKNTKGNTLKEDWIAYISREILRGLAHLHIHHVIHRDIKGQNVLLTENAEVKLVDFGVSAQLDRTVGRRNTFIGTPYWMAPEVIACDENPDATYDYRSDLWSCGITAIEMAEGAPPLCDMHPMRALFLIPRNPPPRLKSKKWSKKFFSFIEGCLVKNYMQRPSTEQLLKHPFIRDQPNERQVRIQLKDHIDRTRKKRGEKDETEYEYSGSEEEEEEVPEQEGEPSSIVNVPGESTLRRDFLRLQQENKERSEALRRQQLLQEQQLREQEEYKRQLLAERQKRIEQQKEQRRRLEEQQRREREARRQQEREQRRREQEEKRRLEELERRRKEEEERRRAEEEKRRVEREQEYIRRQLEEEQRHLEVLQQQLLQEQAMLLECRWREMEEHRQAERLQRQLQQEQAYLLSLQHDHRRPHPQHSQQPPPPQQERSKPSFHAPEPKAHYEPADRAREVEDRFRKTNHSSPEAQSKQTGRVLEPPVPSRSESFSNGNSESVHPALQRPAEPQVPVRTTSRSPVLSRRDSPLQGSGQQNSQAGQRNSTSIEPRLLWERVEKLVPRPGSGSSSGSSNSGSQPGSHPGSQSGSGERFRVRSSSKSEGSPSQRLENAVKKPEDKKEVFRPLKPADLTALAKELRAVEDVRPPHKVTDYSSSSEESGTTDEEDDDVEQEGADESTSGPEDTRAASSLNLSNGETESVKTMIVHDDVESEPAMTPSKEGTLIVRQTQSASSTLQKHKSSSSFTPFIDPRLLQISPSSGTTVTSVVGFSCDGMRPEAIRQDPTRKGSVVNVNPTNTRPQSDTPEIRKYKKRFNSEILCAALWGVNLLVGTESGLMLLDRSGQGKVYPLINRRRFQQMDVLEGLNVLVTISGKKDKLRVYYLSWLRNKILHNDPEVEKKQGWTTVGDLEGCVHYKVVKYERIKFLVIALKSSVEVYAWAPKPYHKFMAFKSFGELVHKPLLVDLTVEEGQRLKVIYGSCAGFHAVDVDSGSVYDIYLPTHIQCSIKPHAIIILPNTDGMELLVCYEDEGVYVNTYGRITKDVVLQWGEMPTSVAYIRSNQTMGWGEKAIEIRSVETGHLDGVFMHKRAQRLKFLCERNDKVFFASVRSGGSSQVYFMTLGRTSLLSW
Sequence of 5'-AMP-activated protein kinase catalytic subunit alpha-1 (Q13131 whole entry): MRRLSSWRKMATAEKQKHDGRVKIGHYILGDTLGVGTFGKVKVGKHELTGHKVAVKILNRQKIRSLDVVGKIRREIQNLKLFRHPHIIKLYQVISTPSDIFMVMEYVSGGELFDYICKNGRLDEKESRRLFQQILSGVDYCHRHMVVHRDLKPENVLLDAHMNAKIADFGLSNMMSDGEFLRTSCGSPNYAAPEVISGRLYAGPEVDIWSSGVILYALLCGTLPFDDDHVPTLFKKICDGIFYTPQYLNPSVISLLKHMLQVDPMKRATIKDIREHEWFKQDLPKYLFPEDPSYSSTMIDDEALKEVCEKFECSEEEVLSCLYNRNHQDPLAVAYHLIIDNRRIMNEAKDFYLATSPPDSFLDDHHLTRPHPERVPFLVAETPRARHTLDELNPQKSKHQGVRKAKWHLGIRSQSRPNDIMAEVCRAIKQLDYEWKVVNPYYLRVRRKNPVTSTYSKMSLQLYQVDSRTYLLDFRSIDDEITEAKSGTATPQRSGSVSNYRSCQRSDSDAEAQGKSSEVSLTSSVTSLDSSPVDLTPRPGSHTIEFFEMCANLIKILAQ

Row | Compound | Kd [1] | Kd [2] | Kd [3] | Kd [4] | Kd [5] | Kd [6] | Kd [7] | Kd [8]
1 | Cc1cc(-c2cc(O)ccc2Cl)cc2nnc(Nc3ccc(OCCN4CCCC4)cc3)nc12 | > 30 µM (inactive) | > 30 µM (inactive) | > 30 µM (inactive) | > 30 µM (inactive) | > 30 µM (inactive) | > 30 µM (inactive) | > 30 µM (inactive) | > 30 µM (inactive)
2 | O=C(c1ccc(F)c(F)c1Nc1ccc(I)cc1F)N1CC(O)([C@@H]2CCCCN2)C1 [COBIMETINIB] | > 30 µM (inactive) | > 30 µM (inactive) | > 30 µM (inactive) | > 30 µM (inactive) | > 30 µM (inactive) | > 30 µM (inactive) | > 30 µM (inactive) | > 30 µM (inactive)
3 | CN1CCC(COc2cnc(-c3cccc(Cn4nc(-c5cccc(C#N)c5)ccc4=O)c3)nc2)CC1 [TEPOTINIB] | > 30 µM (inactive) | > 30 µM (inactive) | > 30 µM (inactive) | > 30 µM (inactive) | > 30 µM (inactive) | > 30 µM (inactive) | > 30 µM (inactive) | > 30 µM (inactive)
4 | CC[C@@H]1C(=O)N(C)c2cnc(Nc3ccc(C(=O)N[C@H]4CC[C@H](N5CCN(CC6CC6)CC5)CC4)cc3OC)nc2N1C(C)C [VOLASERTIB] | > 30 µM (inactive) | > 30 µM (inactive) | > 30 µM (inactive) | > 30 µM (inactive) | > 30 µM (inactive) | > 30 µM (inactive) | > 30 µM (inactive) | > 30 µM (inactive)
5 | C[C@@H]1CN(Cc2ccc(F)cc2)[C@@H](C)CN1C(=O)c1cc2c(C(=O)C(=O)N(C)C)cn(C)c2cc1Cl [TALMAPIMOD] | > 30 µM (inactive) | > 30 µM (inactive) | > 30 µM (inactive) | > 30 µM (inactive) | > 30 µM (inactive) | > 30 µM (inactive) | > 30 µM (inactive) | > 30 µM (inactive)
6 | CO[C@H]1C[C@@H]2CC[C@@H](C)[C@@](O)(O2)C(=O)C(=O)N2CCCC[C@H]2C(=O)O[C@H]([C@H](C)C[C@@H]2CC[C@@H](OCCO)[C@H](OC)C2)CC(=O)[C@H](C)/C=C(\C)[C@@H](O)[C@@H](OC)C(=O)[C@H](C)C[C@H](C)/C=C/C=C/C=C/1C [EVEROLIMUS] | > 30 µM (inactive) | > 30 µM (inactive) | > 30 µM (inactive) | > 30 µM (inactive) | > 30 µM (inactive) | > 30 µM (inactive) | > 30 µM (inactive) | > 30 µM (inactive)
7 | COc1cc2nccc(Oc3ccc(NC(=O)Nc4cc(C)on4)c(Cl)c3)c2cc1OC [TIVOZANIB] | > 30 µM (inactive) | 2.02 µM (active) | > 30 µM (inactive) | > 30 µM (inactive) | > 30 µM (inactive) | > 30 µM (inactive) | > 30 µM (inactive) | > 30 µM (inactive)
8 | COC(=O)[C@@]1(O)C[C@H]2O[C@]1(C)n1c3ccccc3c3c4c(c5c6ccccc6n2c5c31)C(=O)NC4 [K-252A] | > 30 µM (inactive) | > 30 µM (inactive) | 0.461 µM (active) | > 30 µM (inactive) | 0.019 µM (active) | > 30 µM (inactive) | 0.01 µM (active) | > 30 µM (inactive)
9 | Cc1ccc(NC(=O)c2ccc(CN3CC[C@H](N(C)C)C3)c(C(F)(F)F)c2)cc1Nc1nccc(-c2cncnc2)n1 [BAFETINIB] | > 30 µM (inactive) | 0.239 µM (active) | > 30 µM (inactive) | > 30 µM (inactive) | > 30 µM (inactive) | > 30 µM (inactive) | > 30 µM (inactive) | > 30 µM (inactive)
10 | Cc1ccc(-n2nc(C(C)(C)C)cc2NC(=O)NCc2cc(F)ccc2Oc2ccc3c(cnn3CCO)c2)cc1 [PEXMETINIB] | > 30 µM (inactive) | 2.5 µM (active) | > 30 µM (inactive) | > 30 µM (inactive) | 0.222 µM (active) | > 30 µM (inactive) | > 30 µM (inactive) | > 30 µM (inactive)
11 | CNC(=O)c1ccc(-c2cnc3ncc(Cc4ccc5ncccc5c4)n3n2)cc1F [CAPMATINIB] | > 30 µM (inactive) | > 30 µM (inactive) | > 30 µM (inactive) | > 30 µM (inactive) | > 30 µM (inactive) | > 30 µM (inactive) | > 30 µM (inactive) | > 30 µM (inactive)

More lines, now with the values ahead:

Row | Kd [1] | Kd [2] | Kd [3] | Kd [4] | Kd [5] | Kd [6] | Kd [7] | Kd [8] | Compound
12 | > 30 µM (inactive) | > 30 µM (inactive) | > 30 µM (inactive) | > 30 µM (inactive) | > 30 µM (inactive) | > 30 µM (inactive) | > 30 µM (inactive) | > 30 µM (inactive) | Cn1cc(-c2ccc(F)c(C(F)(F)F)c2)nc1C1CCN(c2ncnc3[nH]ncc23)CC1 [LY-2584702]
13 | > 30 µM (inactive) | > 30 µM (inactive) | > 30 µM (inactive) | > 30 µM (inactive) | > 30 µM (inactive) | > 30 µM (inactive) | > 30 µM (inactive) | > 30 µM (inactive) | CNC(=O)c1ccc(C)c(-n2c(C)cc(OCc3ccc(F)cc3F)c(Br)c2=O)c1 [PH-797804]
14 | > 30 µM (inactive) | > 30 µM (inactive) | > 30 µM (inactive) | > 30 µM (inactive) | > 30 µM (inactive) | > 30 µM (inactive) | > 30 µM (inactive) | > 30 µM (inactive) | COc1ccc(-c2ccc3c(N4CCOC[C@@H]4C)nc(N4CCOC[C@@H]4C)nc3n2)cc1CO [AZD-8055]
15 | > 30 µM (inactive) | > 30 µM (inactive) | > 30 µM (inactive) | > 30 µM (inactive) | > 30 µM (inactive) | > 30 µM (inactive) | > 30 µM (inactive) | > 30 µM (inactive) | O=C(O)[C@]1(Cc2cccc(Nc3nccs3)n2)CC[C@@H](Oc2cccc(Cl)c2F)CC1 [MK-5108]
16 | > 30 µM (inactive) | > 30 µM (inactive) | > 30 µM (inactive) | > 30 µM (inactive) | > 30 µM (inactive) | > 30 µM (inactive) | > 30 µM (inactive) | > 30 µM (inactive) | COc1cc(CCc2cc(NC(=O)c3ccc(N4C[C@@H](C)N[C@@H](C)C4)cc3)n[nH]2)cc(OC)c1 [AZD-4547]
